Laboratory results taken from patent publication US20080279843A1, “Method For Improving Insulin Sensitivity By Administering an Inhibitor of Antitrypsin” (Essential SkinCare, LLC, priority 2003, published 2008).
“Also recorded” adds a separate entry of the source.

Legend:
[1] = molecular target: AT (Homo sapiens, UniProt P01009); test: Prevention of the inhibitory effect of AT on insulin-stimulated glycogen synthesis in differentiated L6 cells (Example 7); assay type: cell-based; settings: FIG. 5
Chain of AT (P01009 25-418): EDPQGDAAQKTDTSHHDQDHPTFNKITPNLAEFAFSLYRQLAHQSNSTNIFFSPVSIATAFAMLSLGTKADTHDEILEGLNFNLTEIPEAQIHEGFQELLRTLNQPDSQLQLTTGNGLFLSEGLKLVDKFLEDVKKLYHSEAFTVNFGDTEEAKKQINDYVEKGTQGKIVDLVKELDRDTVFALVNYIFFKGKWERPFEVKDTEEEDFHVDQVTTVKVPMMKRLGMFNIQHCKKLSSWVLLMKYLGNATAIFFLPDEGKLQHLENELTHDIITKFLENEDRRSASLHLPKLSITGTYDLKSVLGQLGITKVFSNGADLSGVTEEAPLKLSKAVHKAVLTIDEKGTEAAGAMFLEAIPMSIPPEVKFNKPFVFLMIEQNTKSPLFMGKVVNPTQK
Method: (§1) Rat L6 skeletal muscle cells were obtained from the American Type Culture Collection, Rockville, Md. L6 cell monolayers were induced to differentiate in Minimal Essential Medium (MEM) containing 2% (v/v) fetal bovine serum (FBS) and 1% (v/v) antibiotic/antimycotic solution. The cells were fed fresh medium every 48 hours. Myoblast differentiation, which occurred by about the 7-9th day, was monitored by phase contrast microscopy. Differentiated L6 cells are widely used models for studying glucose metabolism in the skeletal muscle. The present study was focused on these cells, because skeletal muscle accounts for about 70-80% of total blood glucose metabolism in the human body.
To examine cellular glucose uptake and metabolism, differentiated (attached) cells in 12-well plates were incubated at 37° C. in a CO2 incubator (95% air: 5% CO2) with D-[^14C]glucose (1 μCi/mL) in 2% FBS-containing medium containing 5.5 mM unlabeled glucose for 0.5-6 hours as indicated at the corresponding Figures. […] Cells were washed twice with 3 ml medium to remove traces of medium containing unincorporated radioactivity. […]
Aliquots of the upper and lower phases were taken to scintillation vials to determine the amounts of radiolabeled glucose and total lipids, respectively, by liquid scintillation counting. […] No additional radioactivity could be removed from the well by neutralized 30% KOH. […]

[2] = molecular target: AT activity (Homo sapiens, UniProt P01009); settings: daily oral administration of GF at the 600 mg level; Janciauskiene and Eriksson 1994; cited from earlier work
Chain of AT activity (P01009 25-418): as above

[3] = tested on: humans; settings: 600-1200 mg GF once daily, oral, in humans; literature studies; cited from earlier work
[4] = tested on: C57/Black female mice; test: Glucose tolerance test with insulin and commercial AT (Example 2); assay type: in vivo; settings: FIG. 2; fasting (16 h) mice; insulin 0.5 I.U. 15 min before glucose 3 g/kg i.p.
Method: C57/Black female mice weighing 22-23 g were fasted for 16 hours. Four animals were used for each of four treatment groups. The first and fourth treatment group received intraperitoneal injections of 1500 μg commercially obtained AT. Exactly 23 hours and 45 minutes after the AT was administered to the first and fourth treatment group, the animals in the first and second treatment group received 0.5 I.U. of insulin. Exactly 15 minutes after the insulin was administered (i.e., 24 hours after the AT was administered to the first treatment group), glucose (3 g/kg) was injected intraperitoneally into the first, second and third treatment groups. Blood samples were taken from the eyes (canthus), and glucose concentrations in whole blood samples were immediately measured with the fast Glucose C test (Wako Chemicals USA Inc., Richmond, Va., USA). The data presented are the mean ±S.D. of four determinations, one with each animal.

[5] = tested on: C57/Black female mice; test: Glucose tolerance test with insulin and purified AT (Example 3); assay type: in vivo; settings: for Glucose level: mice fasted 16 h, glucose 3 g/kg i.p., insulin 0.5 I.U. 15 min before glucose, purified AT 1200 μg i.p. 24 h before glucose, mean ± S.D., n=5
Method: C57/Black female mice weighing 23-25 g were fasted for 16 hours. Five animals were used for each of the three treatment groups. The first treatment group received intraperitoneal injections of 1200 μg purified AT, i.e. AT purified by the procedure of Example 1. Exactly 23 hours and 45 minutes after the AT was administered to the first treatment group, the animals in the first and second treatment group received 0.5 I.U. of insulin. Exactly 15 minutes after the insulin was administered (i.e., 24 hours after AT was administered to the first treatment group), glucose (3 g/kg) was injected intraperitoneally into the first, second and third treatment group. Blood samples were immediately measured with the fast Glucose C test (Wako Chemicals Inc. Richmond, Va., USA). The data presented are the mean ±S.D. of five determinations, one with each animal.

[6] = tested on: differentiated rat L6 muscle cells; test: Cellular uptake of D-[14C]glucose; assay type: cell-based; settings: FIG. 3A; 500 nM insulin; incubations for 2-6 hours
Method: as §1
(§2) To examine cellular glucose uptake and metabolism, differentiated (attached) cells in 12-well plates were incubated at 37° C. in a CO2 incubator (95% air: 5% CO2) with D-[^14C]glucose (1 μCi/mL) in 2% FBS-containing medium containing 5.5 mM unlabeled glucose for 0.5-6 hours as indicated at the corresponding Figures. At the termination of incubation, the medium was removed. An aliquot of the medium was taken to determine the loss of [^14C]glucose from the medium which corresponds to its uptake by cells. Cells were washed twice with 3 ml medium to remove traces of medium containing unincorporated radioactivity. Ice-cold 99.8% methanol/0.2% water (v/v) mixture (1 ml) was then added to the monolayers and cells were extracted for 2 hours at −20° C. […] The methanol phase (1 ml) and a following 1 ml methanol wash were added to 2 ml chloroform followed by the addition of 3 ml water. Of the resulting two phases (separation was facilitated by brief centrifugation), the lower phase contained the total radiolabeled lipids, while the upper phase contained [^14C]glucose.
(§3) Aliquots of the upper and lower phases were taken to scintillation vials to determine the amounts of radiolabeled glucose and total lipids, respectively, by liquid scintillation counting. Precipitated [^14C]glycogen was suspended in 0.75 ml of 1 M NaOH and transferred to scintillation vial. This procedure was repeated with another 0.75 ml aliquot of NaOH. To neutralize the suspension, […] (approximately 150 μL) was then added to the vials, followed by the addition of 8.5 ml Ecolume (scintillation fluid). While the 1 M NaOH suspension contained some particulate material (mostly protein which was not labeled with radiolabeled glucose), no precipitate remained in the suspension after addition of Ecolume. […] No additional radioactivity could be removed from the well by neutralized 30% KOH.
(§4) Three groups of differentiated L6 cells, incubated in 12-well plates in 2% FBS-containing medium, were treated as follows. A first control group ([…]) was untreated. A second group (▴) was treated with 500 nM insulin for 30 min. A third group (▪) was treated first with 0.4 mg/ml of AT followed by an addition of 500 nM insulin for 30 min. Following the addition of D-[^14C]glucose, each group was incubated in the continuous presence of insulin and AT, as described above, for 0.5-6 hours.
Four groups of differentiated L6 cells, incubated in 12-well plates in 2% FBS-containing medium, were treated as follows. A first control group was untreated. A second group was treated with 500 nM insulin for 30 min. A third group was treated with 0.05 to 0.4 mg/ml of AT for 10 min. Finally, a fourth group was treated with 0.05 to 0.4 mg/ml of AT for 10 min followed by the addition of 500 nM insulin for 30 min. […]

[7] = tested on: differentiated rat L6 muscle cells; test: Synthesis of [14C]glycogen from radiolabeled glucose; assay type: cell-based; settings: 500 nM insulin
Method: as §1, §2, §3
In some experiments, a published procedure [Huang, D., Cheung, A. T., Parsons, J. T. and Bryer-Ash, M. “Focal adhesion kinase (FAK) regulates insulin-stimulated glycogen synthesis in hepatocytes.” J. Biol. Chem. 277, 18151-18160, (2002)] was used to determine glucose incorporation into glycogen in a method similar to the one described above. After incubations with [^14C] glucose, cells were solubilized with 20% KOH for 2 hours. Lysates were extracted with 8% […], neutralized with 2.0 M HCl, then boiled for 5 min. The total glycogen was precipitated by the addition of 80% ethanol (final concentration) for 2 hours at −20° C. followed by centrifugation at 1100×g for 10 min. This step was repeated.
After the pellets had been re-dissolved in distilled water, the samples were precipitated again using the same method described above, and yielded essentially the same results. In subsequent experiments the initial methanol precipitation method described above was used because it allowed for analysis of cellular glucose, glycogen and lipids from the same sample.
as §4, with “Following the addition of D-[^14C]glucose, each group was incubated in the continuous presence of insulin and AT, as described above, for 0.5-6 hours.” left out

With `Cc1ccc(C)c(OCCCC(C)(C)C(=O)O)c1` [GF, gemfibrozil] as the compound, how does the “Effect of GF or LCA on the inhibitory effect of AT on insulin-stimulated glycogen synthesis” value ([1]; 25 mM GF or 50 μM LCA added 60 min prior to AT (0.4 mg/ml), 500 nM insulin, 5 hours) read?
The value was “AT had no such inhibitory effect; also recorded: capable of preventing the strong inhibitory effect of AT”.

What about the “Effect of GF or LCA on glycogen synthesis in the absence of AT” value ([1]; 25 mM GF or 50 μM LCA, without AT) of the same compound?
Its value is “Neither GF nor LCA had a significant effect”.

What about the “Inhibition of AT activity” value [2] of the same compound?
Its value is 30-60%.

What about the Side effects [3] of the same compound?
Its Side effects is “In none of these studies did GF exert any significant side effects”.

Which results are given for insulin [reference compound]?
Effect of insulin on the rise in blood glucose level after glucose [4]: initially strongly inhibited the rise in blood glucose level; Glucose level ([5]; 0 min): 1.7 ± 0.2 mM; Glucose level ([5]; 30 min): N.D.* (N.D means not detectable (below 1 mM)); Glucose level ([5]; 60 min): 2.5 ± 0.2 mM; Glucose level ([5]; 180 min): 3.0 ± 0.3 mM; Glucose level ([5]; 360 min): 3.3 ± 0.3 mM; Effect of insulin on the rise in blood glucose level after glucose ([5]; insulin 0.5 I.U. 15 min before glucose 3 g/kg i.p.): initially strongly inhibited the rise in blood glucose level; Stimulatory effect of insulin on uptake of D-[14C]glucose compared to untreated cells [6]: approximately doubled; also recorded: more than two-fold stimulatory effects; Stimulatory effect of insulin on synthesis of [14C]glycogen compared to untreated cells ([7]; FIG. 3B, incubations for 2-6 hours): approximately doubled; also recorded: more than two-fold stimulatory effects; Stimulation of synthesis of [14C]glycogen by insulin ([7]; FIG. 5, 5 hours): about two-fold
